A value given as a limit tells only on which side of the number the result lay.

This assay has as its target T1, APOL1 (Homo sapiens, UniProt O14791).
T1 sequence (O14791 1-398 S342G/I384M): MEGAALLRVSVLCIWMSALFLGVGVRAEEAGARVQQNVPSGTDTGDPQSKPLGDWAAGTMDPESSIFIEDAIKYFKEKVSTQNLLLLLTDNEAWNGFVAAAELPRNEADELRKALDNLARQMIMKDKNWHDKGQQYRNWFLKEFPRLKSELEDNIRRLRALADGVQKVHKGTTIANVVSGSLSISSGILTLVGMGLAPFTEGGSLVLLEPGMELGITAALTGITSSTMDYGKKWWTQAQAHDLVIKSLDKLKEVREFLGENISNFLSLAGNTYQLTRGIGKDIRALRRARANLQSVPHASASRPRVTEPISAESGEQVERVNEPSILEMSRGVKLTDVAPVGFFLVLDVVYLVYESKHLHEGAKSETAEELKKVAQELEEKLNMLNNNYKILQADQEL
Kind of assay: Multi-Tox Assay (MultiTox-Fluor Multiplex Cytotoxicity Assay in tet-inducible APOL1 T-REx-HEK293 cells; Table 46 does not say which APOL1 variant G0/G1/G2). The format is cell-based. Conditions: APOL1 variant not given; for IC50: IP50 = IC50 for cell proliferation.

Usually IC90 stands for the concentration at which the effect reaches the 90% level. Read a high IC90 as a need for much substance. Usually IC50 stands for the concentration that inhibits the measured activity by half. A higher IC50 goes with a need for much substance. For `C[C@@H](CO)CCn1cc([C@@H]2CC3(C[C@H](C)N2)OCC(F)(F)c2cc(Cl)sc23)nn1` (stereo in doubt) [Compound 338], the IC90 was < 50 nM, the “Multi-Tox Assay Max Activity (%)” value came to 99.0% and the concentration for half-maximal inhibition (IC50) is < 50 nM.

On to `C#C[C@@H]1C[C@]2(C[C@H](C)N1)OCCc1cc(Cl)sc12` [Compound 221, (2S,4S,6S)-2′-chloro-2-ethynyl-6-methyl-4′,5′-dihydrospiro[piperidine-4,7′-thieno[2,3-c]pyran]], for which the IC50 is < 50 nM.

The molecule `C#C[C@@H]1C[C@]2(C[C@H](C)N1)OC[C@@H](O)c1cc(Cl)sc12` [Compound 222, (2′S,4S,6′S,7S)-2-chloro-2′-ethynyl-6′-methyl-spiro[4,5-dihydrothieno[2,3-c]pyran-7,4′-piperidine]-4-ol] came in with an IC50 of 50 to 500 nM. Turning to `C#C[C@@H]1C[C@]2(C[C@H](C)N1)OCC(F)(F)c1cc(Cl)sc12` [Compound 223, (2′S,6′S,7S)-2-chloro-2′-ethynyl-4,4-difluoro-6′-methyl-spiro[5H-thieno[2,3-c]pyran-7,4′-piperidine]], the IC50 is > 500 nM. Same read-out and setting: then `C[C@H]1C[C@@]2(C[C@@H](c3cn(Cc4ccc(CO)cc4)nn3)N1)OC[C@@H](O)c1cc(Cl)sc12` [Compound 224, (2′S,4S,6′S,7S)-2-chloro-2′-[1-[[4-(hydroxymethyl)phenyl]methyl]triazol-4-yl]-6′-methyl-spiro[4,5-dihydrothieno[2,3-c]pyran-7,4′-piperidine]-4-ol], with 50 to 500 nM. With `C[C@H]1C[C@@]2(C[C@@H](c3cn(Cc4ccc(CO)cc4)nn3)N1)OCC(F)(F)c1cc(Cl)sc12` [Compound 225, (4-((4-((2S,4S,6S)-2′-chloro-4′,4′-difluoro-2-methyl-4′,5′-dihydrospiro[piperidine-4,7′-thieno[2,3-c]pyran]-6-yl)-1H-1,2,3-triazol-1-yl)methyl)phenyl)methanol], the “Multi-Tox Assay Max Activity (%)” value is 97.0% and the IC50 was 50 to 500 nM. The corresponding values for `COCC(O)Cn1cc([C@@H]2C[C@]3(C[C@H](C)N2)OC[C@@H](O)c2cc(Cl)sc23)nn1` (stereo partly shown) [Compound 226] are 100.0% and 50 to 500 nM.

As for `C[C@H]1C[C@@]2(C[C@@H](c3cn(CC4CCCCO4)nn3)N1)OC[C@@H](O)c1cc(Cl)sc12` (stereo partly shown) [Compound 227], the “Multi-Tox Assay Max Activity (%)” value is 100.0% and the 50% inhibitory concentration (IC50) was in the range of 50 to 500 nM. The corresponding values for `C[C@H]1C[C@@]2(C[C@@H](c3cn(CCCS(C)(=O)=O)nn3)N1)OC[C@@H](O)c1cc(Cl)sc12` [Compound 228] are 100.0% and 50 to 500 nM. As for `COCCOCCn1cc([C@@H]2C[C@]3(C[C@H](C)N2)OC[C@@H](O)c2cc(Cl)sc23)nn1` [Compound 229], the “Multi-Tox Assay Max Activity (%)” value turned out to be 98.0% and the IC50 lay in the range of 50 to 500 nM.

Regarding `CC(C)C(=O)NCCn1cc([C@@H]2C[C@]3(C[C@H](C)N2)OC[C@@H](O)c2cc(Cl)sc23)nn1` [Compound 230], the “Multi-Tox Assay Max Activity (%)” value was determined as 98.0% and the IC50 was 50 to 500 nM. As to `C[C@H]1C[C@@]2(C[C@@H](c3cn(Cc4ccccc4S(C)(=O)=O)nn3)N1)OC[C@@H](O)c1cc(Cl)sc12` [Compound 231], the “Multi-Tox Assay Max Activity (%)” value was found to be 95.0% and the IC50 lay in the range of 50 to 500 nM. As to `C[C@H]1C[C@@]2(C[C@@H](c3cn(Cc4n[nH]c5ccccc45)nn3)N1)OC[C@@H](O)c1cc(Cl)sc12` [Compound 232], the “Multi-Tox Assay Max Activity (%)” value came to 100.0% and the IC50 was < 50 nM. The corresponding values for `C[C@H]1C[C@@]2(C[C@@H](c3cn(CC4(O)CC4)nn3)N1)OC[C@@H](O)c1cc(Cl)sc12` [Compound 233] are 100.0% and 50 to 500 nM.

In the case of `C[C@H]1C[C@@]2(C[C@@H](c3cn(Cc4ncnc5[nH]ccc45)nn3)N1)OC[C@@H](O)c1cc(Cl)sc12` [Compound 234], the “Multi-Tox Assay Max Activity (%)” value is given as 100.0% and the IC50 was < 50 nM. The corresponding values for `Cc1cc(C)nc(CCn2cc([C@@H]3C[C@]4(C[C@H](C)N3)OC[C@@H](O)c3cc(Cl)sc34)nn2)c1` [Compound 235] are 100.0% and < 50 nM. On to `C[C@H]1C[C@@]2(C[C@@H](c3cn(Cc4ccc(C#N)nc4)nn3)N1)OC[C@@H](O)c1cc(Cl)sc12` [Compound 236], for which the “Multi-Tox Assay Max Activity (%)” value is reported as 100.0% and the IC50 is < 50 nM. In the same order, the values of `Cc1noc(C)c1Cn1cc([C@@H]2C[C@]3(C[C@H](C)N2)OC[C@@H](O)c2cc(Cl)sc23)nn1` [Compound 237] are 99.0% and < 50 nM.

Consider `C[C@H]1C[C@@]2(C[C@@H](c3cn(Cc4ccc(S(C)(=O)=O)cc4)nn3)N1)OC[C@@H](O)c1cc(Cl)sc12` [Compound 238], for which the IC50 was 50 to 500 nM. Turning to `C[C@H]1C[C@@]2(C[C@@H](c3cn(CC(=O)N4CCCCC4)nn3)N1)OC[C@@H](O)c1cc(Cl)sc12` [Compound 239], the “Multi-Tox Assay Max Activity (%)” value is given as 97.0% and the IC50 lay within 50 to 500 nM. With `C[C@H]1C[C@@]2(C[C@@H](c3cn(CC4(CO)CCOCC4)nn3)N1)OC[C@@H](O)c1cc(Cl)sc12` [Compound 240], the “Multi-Tox Assay Max Activity (%)” value is given as 95.0% and the IC50 was in the range of 50 to 500 nM. `C[C@H]1C[C@@]2(C[C@@H](c3cn(CCS(=O)(=O)Nc4ccccc4)nn3)N1)OC[C@@H](O)c1cc(Cl)sc12` [Compound 241]: the IC90 was in the range of 50 to 500 nM, the “Multi-Tox Assay Max Activity (%)” value was determined as 97.0% and the IC50 is < 50 nM. `C[C@H]1C[C@@]2(C[C@@H](c3cn(CC4(CO)CC4)nn3)N1)OC[C@@H](O)c1cc(Cl)sc12` [Compound 242]: the “Multi-Tox Assay Max Activity (%)” value was 97.0% and the IC50 lay within 50 to 500 nM. In the same order, the values of `C[C@H]1C[C@@]2(C[C@@H](c3cn(Cc4cnc5cnccn45)nn3)N1)OC[C@@H](O)c1cc(Cl)sc12` [Compound 243] are 98.0% and 50 to 500 nM.

Consider `C[C@H]1C[C@@]2(C[C@@H](c3cn(CCO)nn3)N1)OC[C@@H](O)c1cc(Cl)sc12` [Compound 244], for which the “Multi-Tox Assay Max Activity (%)” value worked out at 100.0% and the IC50 lay in the range of 50 to 500 nM. Turning to `COc1ccc(Cn2cc([C@@H]3C[C@]4(C[C@H](C)N3)OC[C@@H](O)c3cc(Cl)sc34)nn2)cc1F` [Compound 245], the “Multi-Tox Assay Max Activity (%)” value is 99.0% and the IC50 is < 50 nM. The corresponding values for `C[C@H]1C[C@@]2(C[C@@H](c3cn(C[C@@H](O)CO)nn3)N1)OC[C@@H](O)c1cc(Cl)sc12` [Compound 246] are 97.0% and 50 to 500 nM.

On to `C[C@H]1C[C@@]2(C[C@@H](c3cn(CC(C)(C)O)nn3)N1)OC[C@@H](O)c1cc(Cl)sc12` [Compound 247], for which the IC50 was in the range of 50 to 500 nM. Still for that read-out and setting: then `C[C@H]1C[C@@]2(C[C@@H](c3cn(Cc4cncs4)nn3)N1)OC[C@@H](O)c1cc(Cl)sc12` [Compound 248], with < 50 nM. As to `C[C@H]1C[C@@]2(C[C@@H](c3cn(Cc4ccc5nc(O)[nH]c5c4)nn3)N1)OC[C@@H](O)c1cc(Cl)sc12` [Compound 249], the “Multi-Tox Assay Max Activity (%)” value is listed as 92.0% and the IC50 lay within 50 to 500 nM. As to `C[C@H]1C[C@@]2(C[C@@H](c3cn(CC4CCC4)nn3)N1)OC[C@@H](O)c1cc(Cl)sc12` [Compound 250], the “Multi-Tox Assay Max Activity (%)” value is listed as 95.0% and the IC50 is < 50 nM. In the same order, the values of `Cc1nccn1CCCn1cc([C@@H]2C[C@]3(C[C@H](C)N2)OC[C@@H](O)c2cc(Cl)sc23)nn1` [Compound 251] are 99.0% and 50 to 500 nM. The corresponding values for `C[C@H]1C[C@@]2(C[C@@H](c3cn(CCC(C)(C)O)nn3)N1)OC[C@@H](O)c1cc(Cl)sc12` [Compound 252] are 100.0% and < 50 nM. `C[C@H]1C[C@@]2(C[C@@H](c3cn(Cc4ccc(C#N)cc4)nn3)N1)OC[C@@H](O)c1cc(Cl)sc12` [Compound 253]: the “Multi-Tox Assay Max Activity (%)” value is recorded as 100.0% and the IC50 is < 50 nM. With `C[C@H]1C[C@@]2(C[C@@H](c3cn(CC4CCC(=O)NC4)nn3)N1)OC[C@@H](O)c1cc(Cl)sc12` (stereo partly shown) [Compound 254], the “Multi-Tox Assay Max Activity (%)” value is recorded as 92.0% and the 50% inhibitory concentration (IC50) is > 500 nM. For `C[C@H]1C[C@@]2(C[C@@H](c3cn(CC#N)nn3)N1)OC[C@@H](O)c1cc(Cl)sc12` [Compound 255], the “Multi-Tox Assay Max Activity (%)” value is given as 100.0% and the IC50 is 50 to 500 nM.

For the molecule `CC(CO)Cn1cc([C@@H]2C[C@]3(C[C@H](C)N2)OC[C@@H](O)c2cc(Cl)sc23)nn1` (stereo partly shown) [Compound 256], the “Multi-Tox Assay Max Activity (%)” value is 96.0% and the IC50 was 50 to 500 nM.

With `CCOCCn1cc([C@@H]2C[C@]3(C[C@H](C)N2)OC[C@@H](O)c2cc(Cl)sc23)nn1` [Compound 257], the IC50 is < 50 nM. `CNC(=O)C(C)Cn1cc([C@@H]2C[C@]3(C[C@H](C)N2)OC[C@@H](O)c2cc(Cl)sc23)nn1` (stereo partly shown) [Compound 258]: the “Multi-Tox Assay Max Activity (%)” value was found to be 98.0% and the half-inhibitory concentration (IC50) was in the range of 50 to 500 nM. With `C[C@H]1C[C@@]2(C[C@@H](c3cn(Cc4ccc(O)cc4)nn3)N1)OC[C@@H](O)c1cc(Cl)sc12` [Compound 259], the “Multi-Tox Assay Max Activity (%)” value is listed as 100.0% and the IC50 lay within 50 to 500 nM. With `Cc1cccc(OCC(O)Cn2cc([C@@H]3C[C@]4(C[C@H](C)N3)OC[C@@H](O)c3cc(Cl)sc34)nn2)c1` (stereo partly shown) [Compound 260], the “Multi-Tox Assay Max Activity (%)” value is given as 99.0% and the IC50 was < 50 nM.

The values above are taken from patent publication US12421249B2, “Inhibitors of APOL1 and methods of using same” (Vertex Pharmaceuticals Incorporated, priority 2020, dated 2025).
